Laboratory results published in patent publication US20040171658A1, “Carbohydrate derivatives” (priority 2001, published 2004).
Where a name gives a salt, the structure may show the parent alone.

Experiments:
[1] = target: FXa (Homo sapiens, UniProt P00742); experiment: Factor Xa inhibition (FXa-IC50); type: biochemical
Source text: The inhibition of factor Xa by the compounds according to the invention and the measurement of the anticoagulant and antithrombotic activity can be determined by conventional in-vitro or in-vivo methods. A suitable method is described, for example, by J. Hauptmann et al. in Thrombosis and Haemostasis 1990, 63, 220-223.
The inhibition of factor Xa can be measured, for example, by the method of T. Hara et al. in Thromb. Haemostas. 1994, 71, 314-319.

[2] = target: TF/FVIIa (Homo sapiens, UniProt P08709); experiment: TF/factor VIIa inhibition (TF/FVIIa-IC50); type: biochemical
Chain of TF/FVIIa (P08709 213-466 limits assumed): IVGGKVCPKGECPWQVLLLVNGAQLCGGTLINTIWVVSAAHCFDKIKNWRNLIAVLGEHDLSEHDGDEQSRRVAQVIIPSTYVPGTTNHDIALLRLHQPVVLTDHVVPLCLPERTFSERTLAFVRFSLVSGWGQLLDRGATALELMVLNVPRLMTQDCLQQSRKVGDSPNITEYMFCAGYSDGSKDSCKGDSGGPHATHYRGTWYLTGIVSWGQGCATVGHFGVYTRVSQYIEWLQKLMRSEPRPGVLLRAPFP
Chain of TF/FVIIa (P08709 61-212 partner limits assumed): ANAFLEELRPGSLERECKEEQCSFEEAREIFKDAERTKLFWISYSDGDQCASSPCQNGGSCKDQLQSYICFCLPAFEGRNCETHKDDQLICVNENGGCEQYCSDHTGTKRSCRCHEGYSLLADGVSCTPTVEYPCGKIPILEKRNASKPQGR
Chain of TF/FVIIa (P13726 33-295 partner): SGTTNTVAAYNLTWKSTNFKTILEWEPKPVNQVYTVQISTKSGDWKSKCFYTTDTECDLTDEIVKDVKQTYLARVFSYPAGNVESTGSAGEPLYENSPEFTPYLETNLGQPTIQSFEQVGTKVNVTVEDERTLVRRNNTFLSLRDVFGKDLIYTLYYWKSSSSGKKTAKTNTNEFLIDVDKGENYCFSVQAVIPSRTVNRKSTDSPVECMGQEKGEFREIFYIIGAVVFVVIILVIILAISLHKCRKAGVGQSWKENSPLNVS
Source text: The inhibition of factor VIIa by the compounds according to the invention and the measurement of the anticoagulant and antithrombotic activity can be determined by conventional in-vitro or in-vivo methods. A conventional method for the measurement of the inhibition of factor VIIa is described, for example, by H. F. Ronning et al. in Thrombosis Research 1996, 84, 73-81.

Chain of FXa (P00742 235-488 limits assumed): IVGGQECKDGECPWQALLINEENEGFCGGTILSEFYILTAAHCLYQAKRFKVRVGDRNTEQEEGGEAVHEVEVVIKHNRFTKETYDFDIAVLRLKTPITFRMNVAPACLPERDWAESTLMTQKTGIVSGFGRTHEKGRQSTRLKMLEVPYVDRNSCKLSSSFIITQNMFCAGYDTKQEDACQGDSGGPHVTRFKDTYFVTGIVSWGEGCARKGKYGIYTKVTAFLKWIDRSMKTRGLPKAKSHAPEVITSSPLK
Chain of FXa (P00742 41-179 partner limits assumed): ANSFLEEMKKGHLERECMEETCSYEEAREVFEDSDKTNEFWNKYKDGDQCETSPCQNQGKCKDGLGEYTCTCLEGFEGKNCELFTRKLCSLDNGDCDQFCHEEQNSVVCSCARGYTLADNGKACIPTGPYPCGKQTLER

Row | Compound | IC50 [1] [µM] | IC50 [2] [µM] | melting point
1 | N=C(N)c1cccc(O[C@H]2CO[C@H]3[C@@H]2OC[C@H]3Oc2cccc(C(=N)N)c2)c1 [Compound B2, 2-O-(3′-amidinophenyl)-5-O-(3″-amidinophenyl)-1,4:3,6-dianhydro-D-sorbitol] | 3 | 6 | –
2 | N=C(N)c1cccc(CO[C@H]2CO[C@H]3[C@@H]2OC[C@H]3Oc2cccc(C(=N)N)c2)c1 [Compound A1, 2-O-(3′-Amidinobenzyl)-5-O-(3″-amidinophenyl)-1,4:3,6-dianhydro-D-sorbitol] | 7.9 | – | –
3 | N=C(N)c1ccc(O[C@@H]2CO[C@H]3[C@@H]2OC[C@@H]3Oc2cccc(C(=N)N)c2)cc1 (as salt: trifluoroacetate) [Compound B1, 2-O-(3′-Amidinophenyl)-5-O-(4″-amidinophenyl)-1,4:3,6-dianhydro-D-sorbitol] | – | – | 225 °C (dec.)
4 | N=C(N)c1ccc(O[C@@H]2CO[C@H]3[C@@H]2OC[C@@H]3OCc2cccc(C(=N)N)c2)cc1 [Compound A2, 2-O-(3′-amidinobenzyl)-5-O-(4″-amidinophenyl)-1,4:3,6-dianhydro-D-sorbitol] | 2.1 | 3.9 | –
5 | N=C(N)c1cccc(CO[C@H]2CO[C@H]3[C@@H]2OC[C@H]3Oc2cccc(C(=N)N)c2)c1 (as salt: trifluoroacetate) [Compound A1, 2-O-(3′-Amidinobenzyl)-5-O-(3″-amidinophenyl)-1,4:3,6-dianhydro-D-sorbitol] | – | – | 155 °C
6 | N=C(N)c1ccc(O[C@@H]2CO[C@H]3[C@@H]2OC[C@@H]3Oc2cccc(C(=N)N)c2)cc1 [Compound B1, 2-O-(3′-Amidinophenyl)-5-O-(4″-amidinophenyl)-1,4:3,6-dianhydro-D-sorbitol] | 0.15 | 0.1 | –
